Test results as given in patent US9682940B2, “Indazole derivatives useful as CB-1 inverse agonists” (Janssen Pharmaceutica NV, priority 2015, dated 2017).
Where two headings read alike, the source gives them in different places.

Columns and labels:
[1] = target: Human CB1R (Cannabanoid receptor 1) (Homo sapiens (Human), UniProt P21554); test: CB-1 in vitro cAMP (HTRF) assay in HEK-293 cells; assay type: cell-based; conditions: HEK-293 cells stably transfected with human CB1R, 250 nM Forskolin, mean where tested more than once, read-out: CB-1 (HEK_cAMP) EC50
Summary of the method: (§1)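 HEK-293 cells stably expressing human CB1 or CB2 plated overnight, then tested in HBSS/5 mM HEPES/0.1% BSA with 0.5 mM IBMX and forskolin (1.5 μM working dilution). Intracellular cAMP quantified by competitive HTRF immunoassay (d2-cAMP, cryptate anti-cAMP) against a cAMP standard curve; compounds as 1/3 serial dilutions from 10 mM DMSO stocks.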

Mouse Fast PK/BBB [2] = assay type: in vivo, Male C57bl/6j mice; conditions: oral; for concentration at 4 hr / concentration at 1 hr: male, C57bl/6j
Procedure: Male C57bl/6j mice were ordered from Charles River at 22-25 g and housed 3 per cage. They were fed standard chow (Purina 5001).
Male C57bl/6j mice were dosed with test compounds at 20 mg/kg or 30 mg/kg. Plasma was collected via retro-orbital bleeding at 1 hr and 4 hrs after dosing. Whole brain without cerebellum was collected at 4 hrs after dosing. Wet brain weight was recorded before freezing. Brains were homogenized in saline and sent for analysis for determination of concentration of test compound.

[3] = target: Human CB2R (Cannabanoid receptor 2) (Homo sapiens (Human), UniProt P34972); test: CB-2 in vitro cAMP (HTRF) assay in HEK-293 cells; assay type: cell-based; conditions: HEK-293 cells stably transfected with human CB2R, 250 nM Forskolin, mean where tested more than once, read-out: CB-2 (HEK_cAMP) EC50
Summary of the method: as §1

Mouse Fast PK/BBB [4] = assay type: in vivo, Male C57bl/6j mice; conditions: male, C57bl/6j, brain, oral, Dose 30 mg/kg, read-out: BRAIN Mean Conc. (ng/mL) ± Std. Dev
[5] = DIO mice, 30 mg/kg daily
[6] = brain, Dose 30 mg/kg, Time 4 hr, read-out: BRAIN Mean Conc. (ng/mL) ± Std. Dev
[7] = plasma, Dose 30 mg/kg, Time 1 hr, read-out: PLASMA Mean Conc. (ng/mL) ± Std. Dev
[8] = plasma, Dose 30 mg/kg, Time 4 hr, read-out: PLASMA Mean Conc. (ng/mL) ± Std. Dev

Sequence of Human CB2R (Cannabanoid receptor 2) (P34972 whole entry): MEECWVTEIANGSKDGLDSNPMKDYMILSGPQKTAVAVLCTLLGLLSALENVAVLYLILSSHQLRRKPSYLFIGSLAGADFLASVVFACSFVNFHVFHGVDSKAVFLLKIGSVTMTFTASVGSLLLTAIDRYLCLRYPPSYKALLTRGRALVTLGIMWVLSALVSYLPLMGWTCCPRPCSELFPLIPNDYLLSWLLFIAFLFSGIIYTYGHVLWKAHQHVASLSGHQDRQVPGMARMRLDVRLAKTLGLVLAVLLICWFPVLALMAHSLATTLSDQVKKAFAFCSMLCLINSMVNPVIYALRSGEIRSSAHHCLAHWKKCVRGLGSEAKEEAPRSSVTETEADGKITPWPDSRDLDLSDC
Sequence of Human CB1R (Cannabanoid receptor 1) (P21554 whole entry): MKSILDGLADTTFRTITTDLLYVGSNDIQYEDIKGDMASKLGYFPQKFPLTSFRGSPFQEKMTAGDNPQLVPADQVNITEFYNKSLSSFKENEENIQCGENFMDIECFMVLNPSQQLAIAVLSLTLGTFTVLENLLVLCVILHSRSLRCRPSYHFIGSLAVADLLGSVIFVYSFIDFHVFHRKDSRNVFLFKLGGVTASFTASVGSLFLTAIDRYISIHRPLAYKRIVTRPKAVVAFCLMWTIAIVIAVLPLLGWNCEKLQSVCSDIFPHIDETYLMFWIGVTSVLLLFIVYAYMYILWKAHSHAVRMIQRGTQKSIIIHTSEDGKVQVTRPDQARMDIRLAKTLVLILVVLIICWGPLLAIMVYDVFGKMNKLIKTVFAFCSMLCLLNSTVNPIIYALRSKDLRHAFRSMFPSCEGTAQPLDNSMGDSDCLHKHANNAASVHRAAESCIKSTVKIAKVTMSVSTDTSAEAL

Row | Structure (SMILES) | EC50 [1] [nM] | EC50 [3] [nM] | BRAIN Mean Conc. (ng/mL) ± Std. Dev (Mouse Fast PK/BBB [2]; Dose 30 mg/kg, Time 1 hr) [ng/mL] | PLASMA Mean Conc. (ng/mL) ± Std. Dev (Mouse Fast PK/BBB [2]; Dose 30 mg/kg, Time 1 hr) [ng/mL] | BRAIN Mean Conc. (ng/mL) ± Std. Dev (Mouse Fast PK/BBB [2]; Dose 30 mg/kg, Time 4 hr) [ng/mL] | PLASMA Mean Conc. (ng/mL) ± Std. Dev (Mouse Fast PK/BBB [2]; Dose 30 mg/kg, Time 4 hr) [ng/mL] | concentration at 1 hr (Mouse Fast PK/BBB [2]; [7]) [ng/mL] | concentration at 4 hr (Mouse Fast PK/BBB [2]; [8]) [ng/mL] | further results
1 | O=S(=O)(N1CCC(c2n[nH]c3ccc(C(c4ccc(Cl)cc4)c4ccc(Cl)cc4)cc23)CC1)C(F)(F)F [Compound 35] | 5 | > 10000 | – | – | – | – | – | – | BRAIN Mean Conc. (ng/mL) ± Std. Dev (ng/mL) (Mouse Fast PK/BBB [2]; Dose 20 mg/kg, Time 1 hr): BLOQ ± NA; PLASMA Mean Conc. (ng/mL) ± Std. Dev (Mouse Fast PK/BBB [2]; Dose 20 mg/kg, Time 1 hr): 3613 ± 253 ng/mL; BRAIN Mean Conc. (ng/mL) ± Std. Dev (ng/mL) (Mouse Fast PK/BBB [2]; Dose 20 mg/kg, Time 4 hr): BLOQ ± NA; PLASMA Mean Conc. (ng/mL) ± Std. Dev (Mouse Fast PK/BBB [2]; Dose 20 mg/kg, Time 4 hr): 611 ± 125 ng/mL
2 | NC(=O)c1cccc(CN2CCC(c3nn(C4CC4)c4ccc(C(c5ccc(Cl)cc5)c5ccc(Cl)cc5)cc34)CC2)c1 [Compound 206] | 8 | > 10000 | 21.5 | 333.5 ± 70.5 | 30.6 ± 6.5 | 532.8 ± 58.9 | – | – | –
3 | O=S(=O)(c1cccc(O)c1)N1CCC(c2c3cc(C(c4ccc(Cl)cc4)c4ccc(Cl)cc4)ccc3nn2C2CC2)CC1 [Compound 151, 3-(4-(5-(bis(4-chlorophenyl)methyl)-2-cyclopropyl-2H-indazol-3-yl)piperidin-1-ylsulfonyl)phenol] | 6 | > 10000 | – | – | – | – | 2740 ± 160 | 884 ± 584 | concentration at 4 hr (Mouse Fast PK/BBB [2]; [6]): 31.4 ± 13.4 ng/mL; concentration at 1 hr (Mouse Fast PK/BBB [4]): 41.8 ± 15.7 ng/mL
4 | O=C(O)c1ccc([C@@H](c2ccc(Cl)cc2)c2ccc3[nH]nc(N4CCN(S(=O)(=O)C(F)(F)F)CC4)c3c2)cc1 [Compound 234] | 16 | > 10000 | 11.2 ± 3.95 | 8693 ± 499 | 8.31 ± 2.31 | 979 ± 376 | – | – | –
5 | NC(=O)c1cc(S(=O)(=O)N2CCC(c3c4cc(C(c5ccc(Cl)cc5)c5ccc(Cl)cc5)ccc4nn3C3CC3)CC2)ccc1Cl [Compound 169, 5-(4-(5-(bis(4-chlorophenyl)methyl)-2-cyclopropyl-2H-indazol-3-yl)piperidin-1-ylsulfonyl)-2-chlorobenzamide] | 17 | > 10000 | – | – | – | – | 2460 ± 427 | 2310 ± 554 | concentration at 4 hr (Mouse Fast PK/BBB [2]; [6]): 54.8 ± 14.5 ng/mL; concentration at 1 hr (Mouse Fast PK/BBB [4]): 29.4 ± 3.9 ng/mL
6 | COc1cc(S(=O)(=O)N2CCC(c3c4cc(C(c5ccc(Cl)cc5)c5ccc(Cl)cc5)ccc4nn3C3CC3)CC2)ccc1C(=O)O [Compound 157, 4-(4-(5-(bis(4-chlorophenyl)methyl)-2-cyclopropyl-2H-indazol-3-yl)piperidin-1-ylsulfonyl)-2-methoxybenzoic acid] | 2 | 4030 | – | – | – | – | 241 ± 117 | 13 ± 1.7 | BRAIN Mean Conc. (ng/mL) ± Std. Dev (ng/mL) (Mouse Fast PK/BBB [2]; Dose 30 mg/kg, Time 1 hr): BLOQ ± NA; BRAIN Mean Conc. (ng/mL) ± Std. Dev (ng/mL) (Mouse Fast PK/BBB [2]; Dose 30 mg/kg, Time 4 hr): BLOQ ± NA
7 | O=S(=O)(N1CCC(c2n[nH]c3ccc(C(c4ccc(Cl)cc4)c4ccc(Cl)cc4)cc23)CC1)C(F)(F)F [Compound 17, 5-(bis(4-chlorophenyl)methyl)-3-(1-(trifluoromethylsulfonyl)piperidin-4-yl)-1H-indazole] | 6 | – | – | – | – | – | – | – | Fed Blood Glucose (Std Err) ([5]; Day 0): 174 (9) mg/dL; Mean Body Weight (in Grams (Std Err)) ([5]; Day 0): 42.3 (1.0) Grams; Mean Body Weight (in Grams (Std Err)) ([5]; Day 1): 40.2 (1.1) Grams; Mean Daily Food Intake (in Grams (Std Err)) ([5]; Day 1): 0.8 (0.3) Grams; Mean Body Weight (in Grams (Std Err)) ([5]; Day 2): 38.3 (1.0) Grams; Mean Daily Food Intake (in Grams (Std Err)) ([5]; Day 2): 0.3 (0.1) Grams; Mean Body Weight (in Grams (Std Err)) ([5]; Day 3): 37.2 (1.1) Grams; Mean Daily Food Intake (in Grams (Std Err)) ([5]; Day 3): 0.5 (0.1) Grams; Fed Blood Glucose (Std Err) ([5]; Day 4): 150 (7) mg/dL; Mean Body Weight (in Grams (Std Err)) ([5]; Day 4): 36.3 (1.0) Grams; Mean Daily Food Intake (in Grams (Std Err)) ([5]; Day 4): 0.8 (0.1) Grams; Plasma Insulin (Std Err) ([5]; day 5, 2 hours after dose): 1.24 (0.28) ng/mL; BRAIN Mean Conc. (ng/mL) ± Std. Dev (Mouse Fast PK/BBB [2]; Dose 20 mg/kg, Time 1 hr): 51.8 ± 16.6 ng/mL; PLASMA Mean Conc. (ng/mL) ± Std. Dev (Mouse Fast PK/BBB [2]; Dose 20 mg/kg, Time 1 hr): 4478.2 ± 1576.9 ng/mL; BRAIN Mean Conc. (ng/mL) ± Std. Dev (Mouse Fast PK/BBB [2]; Dose 20 mg/kg, Time 4 hr): 103.2 ± 10.8 ng/mL; PLASMA Mean Conc. (ng/mL) ± Std. Dev (Mouse Fast PK/BBB [2]; Dose 20 mg/kg, Time 4 hr): 3444.4 ± 1058.9 ng/mL
8 | O=C(O)c1cccc(CN2CCC(c3nn(C4CC4)c4ccc(C(c5ccc(Cl)cc5)c5ccc(Cl)cc5)cc34)CC2)c1 [Compound 207] | 9 | 9700 | 516 ± 44.2 | 7373 ± 867 | 1180 ± 115 | 4317 ± 856 | – | – | –
9 | O=C(O)c1ccc([C@@H](c2ccc(Cl)cc2)c2ccc3[nH]nc(C4CCN(S(=O)(=O)C(F)(F)F)CC4)c3c2)cc1 [Compound 232] | 26 | > 10000 | – | 1763 ± 474 | – | 196 ± 88.0 | – | – | BRAIN Mean Conc. (ng/mL) ± Std. Dev (ng/mL) (Mouse Fast PK/BBB [2]; Dose 30 mg/kg, Time 1 hr): BLOQ ± NA; BRAIN Mean Conc. (ng/mL) ± Std. Dev (ng/mL) (Mouse Fast PK/BBB [2]; Dose 30 mg/kg, Time 4 hr): BLOQ ± NA
